# Patent US20260306488A1, “FUNCTIONAL PROTECTIVE AGENT FOR ORGAN OR TISSUE” (TOHOKU UNIVERSITY, priority 2023, published 2026)
# Tests used:
# [1] = test system: adenine-fed renal failure model mouse; experiment: Plasma markers (creatinine, ALT, total cholesterol) in adenine-fed renal failure model mouse; assay type: in vivo, mouse (male C57BL/6); details: plasma samples after 2-week feeding
# Procedure: (§1) In order to confirm that a present compound has an effect of protecting kidney function and liver function in a renal failure model, 2,5-diketopiperazine (cGP; see Table 1) encompassed in the present compound was used for performing analysis in which the cGP is administered to a model mouse with chronic renal failure induced by feeding adenine (hereinafter referred to as the “adenine-fed renal failure model mouse”) to analyze the blood concentration of a uremic substance (creatinine), that is, an indicator of kidney function, and a ratio of renal tubules, as well as to analyze blood concentrations of three liver function markers (ALT, AST, and γGTP) and two lipids (total cholesterol and TG). The adenine-fed renal failure model mouse is a mouse that develops kidney damage because fed adenine crystallizes as insoluble 2,8-dihydroxyadenine in the renal tubules (Cozzolino, M. et al. Kidney Int. 64, 441-450 (2003), Tamagaki, K. et al. Nephrol. Dial. Transplant 21, 651-659 (2006)).
# (§2) The analysis using an adenine-fed renal failure model mouse was performed according to the following procedures through:
# (§3) [1] 8-Week old male C57BL/6 mice (purchased from Japan CLEA) were grouped into a normal diet group (n=6) to be fed a normal diet (CE-2, manufactured by Japan CLEA), and an adenine-fed group (n=12) to be fed the normal diet containing 0.2% adenine (manufactured by Wako).
# [2] After feeding the mice for 6 weeks, the adenine-fed group was grouped into an adenine-fed control group (n=6) to be fed the normal diet, and an adenine-fed cGP group (n=6) to be fed the normal diet containing cGP. The normal diet containing cGP was prepared by mixing cGP (manufactured by Bachem) with the normal diet to a final concentration of 0.0025%.
# [3] After feeding the mice for 2 weeks, blood samples were harvested from each of the three groups (the normal diet group, the adenine-fed control group, and the adenine-fed cGP group) to prepare plasma samples (referred to as “plasma samples after 2-week feeding”) according to a usual method.
# [4] […]
# [2] = test system: adenine-fed renal failure model mouse; experiment: Kidney tissue analysis by Masson's Trichrome Staining in adenine-fed renal failure model mouse (ratio of renal tubules); assay type: in vivo, mouse (male C57BL/6); details: adenine-fed cGP group (0.0025% cGP in diet) vs adenine-fed control group; FIG. 2A, Dunnett's test p<0.01; FIG. 2 legend says after 2-week feeding, method says tissue harvested at 3 weeks
# Procedure: as §1, §2, §3
# [2] […]
# [3] = test system: diabetes model mouse (db/db mouse); experiment: Liver tissue analysis by HE staining in diabetes model mouse; assay type: in vivo, mouse (BKS-db/db); details: diabetes model cGP group (cGP in diet) vs diabetes model normal diet group; after 6-week feeding; FIG. 4
# Procedure: (§4) Next, in order to confirm that the present compound protects kidney function and liver function in a diabetes model, cGP was administered to a diabetes model mouse (db/db mouse) to analyze blood concentrations of two uremic substances (creatinine and phenyl sulfate), as well as a blood concentration of a factor leading to renal failure in a patient with type 1 diabetes (N6-acetyllysine [Ac6Lys]), and additionally, pathological tissues of liver and blood concentrations of three liver function markers (ALT, AST, and γGTP) and two lipids (total cholesterol and TG) were analyzed.
# (§5) The analysis using a diabetes model mouse was performed according to the following procedures through:
# [1] Wild-type mice (BKS-m+/m+ mice, purchased from Japan CLEA) having been fed a normal diet (CE-2, manufactured by Japan CLEA) were grouped into a wild-type normal diet group (n=5) to be fed the normal diet, and a wild-type cGP group (n=4) to be fed the normal diet containing cGP. Besides, diabetes model mice (BKS-db/db mice; purchased from Japan CLEAR) having been fed the normal diet were grouped into a diabetes model normal diet group (n=4) to be fed the normal diet, and a diabetes model cGP group (n=4) to be fed the normal diet containing cGP. […]
# [4] = test system: diabetes model mouse (db/db mouse); experiment: Plasma creatinine, phenyl sulfate and Ac6Lys in diabetes model mouse; assay type: in vivo, mouse (BKS-db/db)
# Procedure: as §4, §5
# [1] Wild-type mice (BKS-m+/m+ mice, purchased from Japan CLEA) having been fed a normal diet (CE-2, manufactured by Japan CLEA) were grouped into a wild-type normal diet group (n=5) to be fed the normal diet, and a wild-type cGP group (n=4) to be fed the normal diet containing cGP. Besides, diabetes model mice (BKS-db/db mice; purchased from Japan CLEAR) having been fed the normal diet were grouped into a diabetes model normal diet group (n=4) to be fed the normal diet, and a diabetes model cGP group (n=4) to be fed the normal diet containing cGP. Blood samples were harvested from the diabetes model cGP group, and plasma samples (referred to as the “plasma samples after 0-week feeding”) were prepared according to a usual method.
# [2] After feeding the mice for 6 weeks, blood samples were harvested from the above four groups (the wild-type normal diet group, the wild-type cGP group, the diabetes model normal diet group, and the diabetes model cGP group), plasma samples (referred to as the “plasma samples after 6-week feeding”) were prepared according to a usual method, and then, liver tissues were harvested, fixed in 10% neutral-buffered formalin, and embedded in paraffin, and the resultant paraffin-embedded liver tissues were sliced to prepare liver tissue sections.
# [3] The thus obtained “plasma samples after 0-week feeding” and “plasma samples after 6-week feeding” were used to measure blood concentrations of the three substances (creatinine, phenyl sulfate, and Ac6Lys) (see FIGS. 5 and 6), and blood concentrations of three liver function markers (ALT, AST, and γGTP) and two lipids (total cholesterol and TG) by mass spectrometry using LC-MS/MS (manufactured by Shimadzu Corporation). Besides, the liver tissue sections prepared as described above were used to perform analysis by Hematoxylin and Eosin (HE) staining method according to a usual method (see FIG. 4).
# [5] = test system: diabetes model mouse (db/db mouse); experiment: Plasma uremic substances (m1A and TMAO) in diabetes model mouse; assay type: in vivo, mouse (BKS-db/db); details: diabetes model cGP group (cGP in diet) vs diabetes model normal diet group, after 5-week feeding, Unpaired t-test p<0.01
# Procedure: Next, in order to confirm that the present compound reduces chronic inflammation and resulting cellular damage, and prevents vascular complication in a diabetes model, cGP was administered to a diabetes model mouse (db/db mouse) to analyze blood concentrations of two uremic substances (1-methyladenosine [m1A] and trimethylamine-N-oxide [TMAO]).
# as §5
# [1] Diabetes model mice (BKS-db/db mice, purchased from Japan CLEA) having been fed a normal diet (CE-2, manufactured by Japan CLEA) were grouped into a diabetes model normal diet group (n=10) to be fed the normal diet, and a diabetes model cGP group (n=10) to be fed the normal diet containing cGP.
# [2] After feeding the mice for 5 weeks, blood samples were harvested from the above two groups (the diabetes model normal diet group, and the diabetes model cGP group), and plasma samples were prepared according to a usual method.
# [3] The thus prepared plasma samples were used to measure blood concentrations of two uremic substances (m1A and TMAO) by mass spectrometry using LC-MS/MS (manufactured by Shimadzu Corporation) (see FIG. 7).
smiles,measurement,setting,value
"O=C1NCC(=O)N2CCCC12 (centres unmarked) [cGP, cyclo-glycyl-proline]",ALT concentration in plasma,"[1]; adenine-fed cGP group (0.0025% cGP in diet) vs adenine-fed control group, FIG. 3A, Dunnett's test p<0.05",significantly decreased
same,total cholesterol concentration in plasma,"[1]; adenine-fed cGP group (0.0025% cGP in diet) vs adenine-fed control group, FIG. 3B, Dunnett's test p<0.05",significantly decreased
same,creatinine concentration in plasma,"[1]; adenine-fed cGP group (normal diet containing 0.0025% cGP) vs adenine-fed control group, FIG. 1, Dunnett's test",significantly decreased
same,ratio of renal tubules in the renal cortex,[2],significantly increased
same,fat droplets in the liver,[3],reduced
same,creatinine concentration in plasma,"[4]; diabetes model cGP group (cGP in diet) vs diabetes model normal diet group, plasma samples after 6-week feeding, FIG. 5, Dunnett's test",significantly decreased
same,"blood concentration of creatinine, week 6 vs week 0","[4]; diabetes model cGP group (cGP in diet), week 6 after feeding compared to week 0, FIG. 6A, Paired t-test p<0.05",significantly lower
same,"blood concentration of phenyl sulfate, week 6 vs week 0","[4]; diabetes model cGP group (cGP in diet), week 6 after feeding compared to week 0, FIG. 6B, Paired t-test p<0.05",significantly lower
same,"blood concentration of N6-acetyllysine (Ac6Lys), week 6 vs week 0","[4]; diabetes model cGP group (cGP in diet), week 6 after feeding compared to week 0, FIG. 6C, Paired t-test p<0.05",significantly lower
same,m1A (1-methyladenosine) concentration in plasma,[5]; FIG. 7A,significantly reduced
same,TMAO (trimethylamine-N-oxide) concentration in plasma,[5]; FIG. 7B,significantly reduced
